Data: patent US9949945B2, “3′ equatorial-fluorine-substituted neuraminidase inhibitor compounds, compositions and methods for the use thereof as anti-virals” (THE UNIVERSITY OF BRITISH COLUMBIA, priority 2012, dated 2018)
Like-named read-outs stand apart in the source and are kept apart here.

What was measured:
Type in all cases: biochemical
[1] = biological target: B/Florida E119D (B/Florida/4/2006 mutant 1 E117D) NA (Influenza B virus, UniProt J7JZT1, E117D)
[2] = biological target: A/Fukui H3N2 E119V (oseltamivir-resistant) NA (Influenza A virus, UniProt A0A0F6NYK2, E119V); details: read-out: IC50 in the enzyme inhibition assay, A/Fukui H3N2 E119V
[3] = biological target: Sol Isl sH1N1 E119A (A/Solomon Islands/3/2006 mutant) NA (Influenza A virus, UniProt B4URD9, E119A)
[4] = biological target: sH1N1/01 H275Y (A/Mississippi/3/01 oseltamivir-resistant) NA (Influenza A virus, UniProt Q3M0T6, H275Y)

Oseltamivir was tested. Which IC50 [1] did it give?
Its IC50 is 1200 nM.

What about the IC50 [2] of the same substance?
The IC50 was 260 nM.

Zanamivir was tested. Which IC50 [3] did it give?
The IC50 was over 10000 nM.

What about the IC50 ([4]; read-out: IC50 in the enzyme inhibition assay, A/Mississippi H1N1 H275Y) of the same substance?
The IC50 was 2.2 nM.

What about the IC50 ([4]; read-out: IC50 sH1N/01 H275Y) of the same substance?
The IC50 was 2.2 nM.
